Assay results as given in patent US20070185152A1, “Inhibitors of akt activity” (Smithkline Beecham Corporation, priority 2004, published 2007).

Molecular target: T1, AKT1 (Homo sapiens, UniProt P31749)
T1 construct: Insect cells expressing His-tagged AKT1 (aa 136-480) were lysed; His; made in house; host or cells: insect cells
Assay: AKT1 kinase inhibition assay (substrate phosphorylation, SPA)
Type: biochemical
Conditions: catalytic domain of AKT1; 10 nM activated AKT enzyme, 4 uM ATP, 8 uM peptide, 40 minutes at room temperature
Procedure: Isolation and Purification of His-tagged AKT1 (aa 136-480)
Insect cells expressing His-tagged AKT1 (aa 136-480) were lysed in 25 mM HEPES, 100 mM NaCl, 20 mM imidazole; pH 7.5 using a polytron (5 mLs lysis buffer/g cells). Cell debris was removed by centrifuging at 28,000×g for 30 minutes. The supernatant was filtered through a 4.5-micron filter then loaded onto a nickel-chelating column pre-equilibrated with lysis buffer. The column was washed with 5 column volumes (CV) of lysis buffer then with 5 CV of 20% buffer B, where buffer B is 25 mM HEPES, 100 mM NaCl, 300 mM imidazole; pH 7.5. His-tagged AKT1 (aa 136-480) was eluted with a 20-100% linear gradient of buffer B over 10 CV. […]
Compounds of the present invention are tested for AKT 1, 2, and 3 protein serine kinase inhibitory activity in substrate phosphorylation assays. […] Substrate phosphorylation is detected by the following procedure:
Assays are performed in 384well U-bottom white plates. […] The reaction is stopped by the addition of 50 ul SPA bead mix (Dulbecco's PBS without Mg^2+ and Ca^2+, 0.1% Triton X-100, 5 mM EDTA, 50 uM ATP, 2.5 mg/ml Streptavidin-coated SPA beads.) The plate is sealed, the beads are allowed to settle overnight, and then the plate is counted in a Packard Topcount Microplate Scintillation Counter (Packard Instrument Co., Meriden, Conn.). […]

T1 sequence (P31749 136-480): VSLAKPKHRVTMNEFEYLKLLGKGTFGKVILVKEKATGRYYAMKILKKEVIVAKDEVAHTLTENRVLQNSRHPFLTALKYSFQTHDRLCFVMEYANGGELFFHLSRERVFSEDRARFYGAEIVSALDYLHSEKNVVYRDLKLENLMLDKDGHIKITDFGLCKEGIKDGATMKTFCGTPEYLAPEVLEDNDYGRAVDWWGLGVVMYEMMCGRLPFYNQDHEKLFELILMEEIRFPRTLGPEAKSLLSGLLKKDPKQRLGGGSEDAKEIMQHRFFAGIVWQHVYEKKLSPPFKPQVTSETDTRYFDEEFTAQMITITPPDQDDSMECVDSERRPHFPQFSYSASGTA

- IC50: 0.182 µM
Compound: Cc1n[nH]c2ccc(-c3cc(OC[C@@H](N)Cc4ccccc4)cnc3-c3ccccc3)cc12 [Example 1, (S)-1-Benzyl-2-[5-(3-methyl-1H-indazol-5-yl)-6-phenyl-pyridin-3-yloxy]-ethylamine]
